How the values were obtained:
[1] = molecular target: KRAS G12C (Homo sapiens (Human), UniProt P01116, C118A/G12C); test: 2 h coupled exchange assay; assay type: biochemical; details: Avg 2 h Coupled exchange IC50, 2 h compound pre-incubation
Protocol: The term “2 h coupled exchange assay” or “20 h coupled exchange assay” as used herein refers to the assay described in the Section entitled “BIOLOGICAL EVALUATION.”

[2] = system: MIA PaCa-2 (human pancreatic carcinoma) cells; test: Cell Viability Assay (CellTiter-Glo), MIA PaCa-2; assay type: cell-based
Protocol: Serially-diluted compound or DMSO was added to the cells, and plates were incubated at 37° C., 5% CO2 for 72 h. Cell viability was measured using a CellTiter-Glo® Luminescent Cell Viability Assay kit (Promega) according to the manufacturer's protocol. The luminescence signal of treated samples was normalized to DMSO control, and data were analyzed using a 4-parameter logistic model to calculate IC50 values.

[3] = system: A549 (human lung carcinoma) cells; test: Cell Viability Assay (CellTiter-Glo), A549; assay type: cell-based
Procedure, shortened: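 Cells grown in RPMI 1640 with 10% FBS were seeded at 1.67E+04 cells/mL and left overnight at 37° C., 5% CO2. They were then exposed to serially diluted compound for 72 h, after which CellTiter-Glo luminescence was read, normalized to DMSO, and fitted to a 4-parameter logistic model for IC50.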

[4] = SOS-mediated nucleotide exchange

KRAS G12C, sequence (P01116 other isoform, or with tags, fused parts or gaps G12C/C118A): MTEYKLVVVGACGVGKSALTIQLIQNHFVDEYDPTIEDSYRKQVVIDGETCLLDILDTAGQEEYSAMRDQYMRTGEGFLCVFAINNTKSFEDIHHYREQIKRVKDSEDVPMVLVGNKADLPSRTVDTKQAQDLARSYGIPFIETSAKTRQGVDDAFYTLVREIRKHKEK

SMILES: C=CC(=O)N1CC2(CCN(c3nc4c(c(-c5c(C)ccc6[nH]ncc56)c3C#N)C[C@H]3C[C@@H]4C3(C)C)C2)C1 (single isomer, unassigned) [Example 13-115]
- IC50 [1, 4]: 0.012 µM
- IC50 ([2]; Homo sapiens, MIA PaCa-2, 72 h): 0.009 µM
- IC50 ([3]; Homo sapiens, A549, 72 h): > 5 µM

SMILES: C=CC(=O)N1CC2(CCN(c3nc4c(c(-c5c(C)ccc6[nH]ncc56)c3C#N)CC(C)(C)C4)C2C)C1 [Example 13-52, 6,6-dimethyl-4-(5-methyl-1H-indazol-4-yl)-2-((5R)-5-methyl-2-(2-propenoyl)-2,6-diazaspiro[3.4]octan-6-yl)-6,7-dihydro-5H-cyclopenta[b]pyridine-3-carbonitrile|6,6-dimethyl-4-(5-methyl-1H-indazol-4-yl)-2-((5S)-5-methyl-2-(2-propenoyl)-2,6-diazaspiro[3.4]octan-6-yl)-6,7-dihydro-5H-cyclopenta[b]pyridine-3-carbonitrile]
- IC50 [1, 4]: 0.043 µM
- IC50 ([2]; Homo sapiens, MIA PaCa-2, 72 h): 0.231 µM
- IC50 ([3]; Homo sapiens, A549, 72 h): > 5 µM

SMILES: C=CC(=O)N1CC2(CCN(c3nc4cc(-c5nccn5C)ccc4c(-c4ccc(F)cc4F)c3C#N)C2)C1 [Example 20-14, 4-(2,4-difluorophenyl)-7-(1-methyl-1H-imidazol-2-yl)-2-(2-(2-propenoyl)-2,6-diazaspiro[3.4]octan-6-yl)-3-quinolinecarbonitrile]
- IC50 [1]: 0.243 µM
- IC50 ([2]; Homo sapiens, MIA PaCa-2, 72 h): 1.35 µM
- IC50 ([3]; Homo sapiens, A549, 72 h): 9.15 µM

SMILES: C=CC(=O)N1CC2(CCN(c3nc4c(c(-c5c(C)ccc6[nH]ncc56)c3C)CCN(C3CC3)C4)C2)C1 [Example 18-16, 1-(6-(7-cyclopropyl-3-methyl-4-(5-methyl-1H-indazol-4-yl)-5,6,7,8-tetrahydro-1,7-naphthyridin-2-yl)-2,6-diazaspiro[3.4]octan-2-yl)-2-propen-1-one]
- IC50 [1]: 0.355 µM
- IC50 ([2]; Homo sapiens, MIA PaCa-2, 72 h): 0.188 µM
- IC50 ([3]; Homo sapiens, A549, 72 h): > 5 µM

SMILES: COC/C=C/C(=O)N1CC2(CCN(c3nc4c(c(-c5c(C)ccc6[nH]ncc56)c3C#N)CCC(C)(C)C4)C2)C1 [Example 13-4, 2-(2-((2E)-4-methoxy-2-butenoyl)-2,6-diazaspiro[3.4]octan-6-yl)-7,7-dimethyl-4-(5-methyl-1H-indazol-4-yl)-5,6,7,8-tetrahydro-3-quinolinecarbonitrile]
- IC50 [1, 4]: 0.357 µM
- IC50 ([2]; Homo sapiens, MIA PaCa-2, 72 h): 1.62 µM
- IC50 ([3]; Homo sapiens, A549, 72 h): > 5 µM

SMILES: C=CC(=O)N1CC2(CCN(c3nc4cc(OC)ccc4c(-c4c(C)ccc5[nH]ncc45)c3C)C2)C1 [Example 2-48, 1-(6-(7-methoxy-3-methyl-4-(5-methyl-1H-indazol-4-yl)-2-quinolinyl)-2,6-diazaspiro[3,4]octan-2-yl)-2-propen-1-one]
- IC50 [1, 4]: 0.109 µM
- IC50 ([2]; Homo sapiens, MIA PaCa-2, 72 h): 0.885 µM
- IC50 ([3]; Homo sapiens, A549, 72 h): > 5 µM

SMILES: C=CC(=O)N1CC2(CCN(c3nc4c(c(-c5c(C)ccc6ccccc56)n3)CCCC4)C2)C1 [Example 1-12, 1-(6-(4-(2-methyl-1-naphthalenyl)-5,6,7,8-tetrahydro-2-quinazolinyl)-2,6-diazaspiro[3.4]octan-2-yl)-2-propen-1-one]
- IC50 [1, 4]: 2.59 µM
- IC50 ([2]; Homo sapiens, MIA PaCa-2, 72 h): 5.39 µM
- IC50 ([3]; Homo sapiens, A549, 72 h): 7.23 µM

SMILES: C=CC(=O)N1CC2(CCN(c3nc4c(c(-c5cc(O)ccc5Cl)n3)CCCC4)C2)C1 [Example 1-18, 1-(6-(4-(2-chloro-5-hydroxyphenyl)-5,6,7,8-tetrahydro-2-quinazolinyl)-2,6-diazaspiro[3.4]octan-2-yl)-2-propen-1-one]
- IC50 [1, 4]: 8.46 µM
- IC50 ([2]; Homo sapiens, MIA PaCa-2, 72 h): 8.67 µM
- IC50 ([3]; Homo sapiens, A549, 72 h): 9.46 µM

SMILES: C=CC(=O)N1CC2(CCN(c3nc4c(c(-c5c(C)c(C)cc6cnn(C)c56)c3C#N)CCC(C)(C)C4)C2)C1 [Example 13-89, 7,7-dimethyl-2-(2-(2-propenoyl)-2,6-diazaspiro[3.4]octan-6-yl)-4-(1,5,6-trimethyl-1H-indazol-7-yl)-5,6,7,8-tetrahydro-3-quinolinecarbonitrile]
- IC50 [1, 4]: 0.035 µM
- IC50 ([2]; Homo sapiens, MIA PaCa-2, 72 h): 0.101 µM
- IC50 ([3]; Homo sapiens, A549, 72 h): > 5 µM

SMILES: C=CC(=O)N1CC2(CCN(c3nc4c(c(-c5c(N)cccc5F)c3C#N)COC(C)(C)C4)C2)C1 [Example 13-157, 4-(2-amino-6-fluorophenyl)-7,7-dimethyl-2-(2-(2-propenoyl)-2,6-diazaspiro[3.4]octan-6-yl)-7,8-dihydro-5H-pyrano[4,3-b]pyridine-3-carbonitrile]
- IC50 [1, 4]: 0.555 µM
- IC50 ([2]; Homo sapiens, MIA PaCa-2, 72 h): 0.357 µM
- IC50 ([3]; Homo sapiens, A549, 72 h): 16.2 µM

SMILES: C=CC(=O)N1CC2(CCN(c3nc4c(c(-c5c(C)ccc6cnn(C)c56)n3)CCCC4)C2)C1 [Example 1-25, 1-(6-(4-(1,6-dimethyl-1H-indazol-7-yl)-5,6,7,8-tetrahydro-2-quinazolinyl)-2,6-diazaspiro[3.4]octan-2-yl)-2-propen-1-one]
- IC50 [1, 4]: 2.6 µM
- IC50 ([2]; Homo sapiens, MIA PaCa-2, 72 h): 8.86 µM
- IC50 ([3]; Homo sapiens, A549, 72 h): 20.3 µM

SMILES: C=CC(=O)N1CC2(CCN(c3nc4c(c(-c5ncccc5C)c3C#N)CCC(c3scnc3C)=C4)C2)C1 (single isomer, unassigned) [Example 23-26, (M)-4-(3-methyl-2-pyridinyl)-7-(4-methyl-1,3-thiazol-5-yl)-2-(2-(2-propenoyl)-2,6-diazaspiro[3.4]octan-6-yl)-5,6-dihydro-3-quinolinecarbonitrile]
- IC50 [1]: 0.551 µM
- IC50 ([2]; 72 h): 1.69 µM
- IC50 ([3]; 72 h): 13 µM

SMILES: C=CC(=O)N1CC2(CCN(c3nc4c(c(-c5ccccc5F)c3C#N)CCN(c3scnc3C)C4C)C2)C1 [Example 21-4, (8R)-4-(2-fluorophenyl)-8-methyl-7-(4-methyl-1,3-thiazol-5-yl)-2-(2-(2-propenoyl)-2,6-diazaspiro[3.4]octan-6-yl)-5,6,7,8-tetrahydro-1,7-naphthyridine-3-carbonitrile (8S)-4-(2-fluorophenyl)-8-methyl-7-(4-methyl-1,3-thiazol-5-yl)-2-(2-(2-propenoyl)-2,6-diazaspiro[3.4]octan-6-yl)-5,6,7,8-tetrahydro-1,7-naphthyridine-3-carbonitrile]
- IC50 [1]: 0.085 µM
- IC50 ([2]; Homo sapiens, MIA PaCa-2, 72 h): 1.61 µM
- IC50 ([3]; Homo sapiens, A549, 72 h): 10.1 µM

SMILES: C=CC(=O)N1CC2(CCN(c3nc4cc(-c5scnc5C)ccc4c(-c4cccc(C)c4C)c3C#N)C2)C1 [Example 20-6, 4-(2,3-dimethylphenyl)-7-(4-methyl-1,3-thiazol-5-yl)-2-(2-(2-propenoyl)-2,6-diazaspiro[3.4]octan-6-yl)-3-quinolinecarbonitrile]
- IC50 [1]: 0.124 µM
- IC50 ([2]; Homo sapiens, MIA PaCa-2, 72 h): 1.55 µM
- IC50 ([3]; Homo sapiens, A549, 72 h): > 5 µM

SMILES: Cc1ccc2[nH]ncc2c1-c1c(C#N)c(N2CCC3(CN(C(=O)/C=C/CN(C)C)C3)C2)nc2c1CCC(C)(C)C2 [Example 13-2, 2-(2-((2E)-4-(dimethylamino)-2-butenoyl)-2,6-diazaspiro[3.4]octan-6-yl)-7,7-dimethyl-4-(5-methyl-1H-indazol-4-yl)-5,6,7,8-tetrahydro-3-quinolinecarbonitrile]
- IC50 [1, 4]: 0.061 µM
- IC50 ([2]; Homo sapiens, MIA PaCa-2, 72 h): 0.366 µM
- IC50 ([3]; Homo sapiens, A549, 72 h): 3.7 µM

SMILES: C=CC(=O)N1CC2(CCN(c3nc(-c4c(C)ccc5[nH]ncc45)c4c(n3)N(C)CC4)C2)C1 [Example 5, 1-(6-(7-methyl-4-(5-methyl-1H-indazol-4-yl)-6,7-dihydro-5H-pyrrolo[2,3-d]pyrimidin-2-yl)-2,6-diazaspiro[3.4]octan-2-yl)prop-2-en-1-one]
- IC50 [1, 4]: 181 µM
- IC50 ([2]; Homo sapiens, MIA PaCa-2, 72 h): 12.9 µM
- IC50 ([3]; Homo sapiens, A549, 72 h): > 25 µM

SMILES: C=CC(=O)N1CC2(CCN(c3nc4c(c(-c5ccc(F)cc5Cl)c3C#N)CCC(c3scnc3C)=C4)C2)C1 [Example 23-18, 4-(2-chloro-4-fluorophenyl)-7-(4-methyl-1,3-thiazol-5-yl)-2-(2-(2-propenoyl)-2,6-diazaspiro[3.4]octan-6-yl)-5,6-dihydro-3-quinolinecarbonitrile]
- IC50 [1]: 0.104 µM
- IC50 ([2]; 72 h): 0.591 µM
- IC50 ([3]; Homo sapiens, A549, 72 h): 2.88 µM

SMILES: C=CC(=O)N1CC2(CCN(c3nc4c(c(-c5cccc6sc(N)nc56)n3)CCCC4)C2)C1 [Example 1-23, 1-(6-(4-(2-amino-1,3-benzothiazol-4-yl)-5,6,7,8-tetrahydro-2-quinazolinyl)-2,6-diazaspiro[3,4]octan-2-yl)-2-propen-1-one]
- IC50 [1, 4]: 1.22 µM
- IC50 ([2]; Homo sapiens, MIA PaCa-2, 72 h): 5.27 µM
- IC50 ([3]; Homo sapiens, A549, 72 h): 10.5 µM

SMILES: C=CC(=O)N1CC2(CCN(c3nc4ccccc4c(-c4c(C)ccc5[nH]ncc45)c3Cl)C2)C1 [Example 27-2, 1-(6-(3-chloro-4-(5-methyl-1H-indazol-4-yl)-2-quinolinyl)-2,6-diazaspiro[3.4]octan-2-yl)-2-propen-1-one]
- IC50 [1]: 0.121 µM
- IC50 ([2]; Homo sapiens, MIA PaCa-2, 72 h): 2.64 µM
- IC50 ([3]; Homo sapiens, A549, 72 h): > 5 µM

SMILES: C=CC(=O)N1CC2(CCN(c3nc4c(c(-c5ccc(F)cc5F)c3C#N)CCN(c3scnc3C)C4)[C@@H]2C)C1 [Example 21-17, 4-(2,4-difluorophenyl)-2-((5R)-5-methyl-2-(2-propenoyl)-2,6-diazaspiro[3.4]octan-6-yl)-7-(4-methyl-1,3-thiazol-5-yl)-5,6,7,8-tetrahydro-1,7-naphthyridine-3-carbonitrile]
- IC50 [1]: 0.136 µM
- IC50 ([2]; Homo sapiens, MIA PaCa-2, 72 h): 0.337 µM
- IC50 ([3]; Homo sapiens, A549, 72 h): 9.84 µM

SMILES: C=CC(=O)N1CC2(CCN(c3nc4c(c(-c5c(F)cccc5Cl)c3C#N)CCC(c3scnc3C)=C4)C2)C1 [Example 23-22, 4-(2-chloro-6-fluorophenyl)-7-(4-methyl-1,3-thiazol-5-yl)-2-(2-(2-propenoyl)-2,6-diazaspiro[3.4]octan-6-yl)-5,6-dihydro-3-quinolinecarbonitrile]
- IC50 [1]: 0.182 µM
- IC50 ([2]; Homo sapiens, MIA PaCa-2, 72 h): 0.725 µM
- IC50 ([3]; Homo sapiens, A549, 72 h): > 5 µM

SMILES: C=CC(=O)N1CC2(CCN(c3nc4c(c(-c5ncccc5F)c3C#N)CCC(c3scnc3C)=C4)C2)C1 [Example 23-49, 4-(3-fluoro-2-pyridinyl)-7-(4-methyl-1,3-thiazol-5-yl)-2-(2-(2-propenoyl)-2,6-diazaspiro[3.4]octan-6-yl)-5,6-dihydro-3-quinolinecarbonitrile]
- IC50 [1]: 0.197 µM
- IC50 ([2]; Homo sapiens, MIA PaCa-2, 72 h): 0.67 µM
- IC50 ([3]; Homo sapiens, A549, 72 h): > 5 µM
